PMC11530130, “Peripherally restricted PICK1 inhibitor mPD5 ameliorates pain behaviors in murine inflammatory and neuropathic pain models” (JCI Insight, 2024)
Several values for one entry are separate records, joined by “and”; a condition that tells them apart may be missing. Equal entries are not always repeated.

System: mice, CFA model of inflammatory pain
Test: CFA model, Hargreaves test (thermally evoked pain)
Assay type: in vivo, mouse
Details: s.c. 10 μmol/kg
Procedure: Induction of inflammatory pain (CFA model).
Injury was induced on the right hind paw, whereas the contralateral left hind paw was used as internal control of the C57BL/6J male and female mice (Janvier, France). The inflammatory pain was induced by injection of 50 μL undiluted Complete Freund’s Adjuvant (CFA) (F5881, Sigma) unilaterally into the intraplantar surface of the right hind paw, whereas control mice were injected with the same amount of 0.9 % saline (B. Braun, Germany). All intraplantar injections were performed with an insulin needle (0.3 mL BD Micro-Fine) while the animal was under isoflurane anaesthesia (2%) for maximum 60 seconds. Von Frey was applied up to 11 days after unilateral CFA injection depending on the experiment. (For Figure 3A, the experiment was run in cohort with Figure 1A of (9)).
Induction of neuropathic pain (SNI model). […]
Post-surgical analgesia included s.c. injection of 5 mg/kg carprofen (Carprosan vet, 50 mg/mL mixed 1:25 in sterile ddH2O, Dechra, Le Vet Beheer B.V., Netherlands, Batch: 050520) right after surgery and the following day. Post-surgical care included daily severity scoring for four days, and medical clips removed. X-ray imaging (IVIS Lumina XR Apparatus, Caliper Life Sciences, Belgium) was conducted to estimate the relative femoral bone density of the ipsilateral femur at baseline and at the experimental endpoint. The test battery of the CIBP model was carried out 45 or 90 min after morphine and mPD5 administration respectively to accommodate the peak efficacy […]
Mechanically evoked pain (von Frey test).
Unless otherwise specified, von Frey occurred as described in the following. Animals were habituated to the experimental room for a minimum of 60 min before initiation of the experiment. Mechanical paw withdrawal threshold (PWT) was determined by von Frey measurements of both hind paws. Von Frey filaments ranging from 0.04 to 2 g (g = gram- […]
Filaments in ascending order were applied to the frontocentral plantar surface of the hind paws.
Mice were placed in PVC plastic boxes (11.5 cm x 14 cm) on a wire mesh and allowed minimum 20 min habituation prior of experiment initiation. Each von Frey hair was applied five times with adequate resting periods between each application and number of withdrawals recorded. The withdrawal threshold was determined as the von Frey filament eliciting at least three positive trials out of the five applications in two consecutive filaments. A positive trial was defined as sudden paw withdrawal, flinching and/or paw licking induced by the filament.
For the CIBP model, two habituation sessions were performed on separated days with mice placed in the von Frey equipment for 1-1.5 hours in the presence of the experimenter on day one and random von Frey pocking with the 0.6 g filament on day two. Von Frey monofilaments (North Coast Touch Test, North Coast Medical, Inc.) with target forces of 0.04g, 0.07g, 0.16g, […]
down method” (PWT=10Xf+kδ) starting with the 0.6 g filament. Positive response was defined as; withdrawal, shaking or grooming of paw following a 2-3 second stimulation. In case, of unclear response, stimulus was repeated after 10-15 seconds.
For the STZ model, the mechanical threshold response of the injected mice was measured with […]
injection of test compounds on day 14, mechanical threshold was measured at 1 hour, 2 hours, 4 hours and 6 hours and again on day 15. […]
Thermally evoked pain (Hargreaves test).
A baseline Hargreaves test was performed on day 0 before inflammatory pain was induced as described in section 2.13. In the Hargreaves test, the mouse was placed in a container on a glass table and left to habituate for at least 15 min. Using the Hargreaves apparatus, a heat beam from beneath was directed towards the hind paws of the mouse, and the paw withdrawal time […]
was registered automatically. The cut off was set to maximum 30 seconds to avoid skin injury and the experiment was repeated 5 times for each paw with at least five min in between […]
measurements. […]

CCCCCCCCCCCCCC(=O)N(CCOCCOCCC(=O)N[C@@H](Cc1c[nH]cn1)C(=O)N[C@@H](Cc1c[nH]c2ccccc12)C(=O)N[C@@H](CC(C)C)C(=O)N[C@@H](CCCCN)C(=O)N[C@H](C(=O)O)C(C)C)CCOCCOCCC(=O)N[C@@H](Cc1c[nH]cn1)C(=O)N[C@@H](Cc1c[nH]c2ccccc12)C(=O)N[C@@H](CC(C)C)C(=O)N[C@@H](CCCCN)C(=O)N[C@H](C(=O)O)C(C)C [mPD5, myristoyl-NPEG4-(HWLKV)2]
effect on the contralateral paw (Hargreaves): No effect | effect on thermal hypersensitivity of the ipsilateral paw (1 hour after administration): reverted | paw withdrawal latency (Hargreaves), individual mice (contralateral paw, 1 h): 10.93 and 8.17 and 12.67 and 7.53 and 10.3 and 14.03 | paw withdrawal latency (Hargreaves), individual mice (contralateral paw, 5 h): 15.97 and 9.47 and 12.27 and 10.97 and 14.37 and 8.3 | paw withdrawal latency (Hargreaves), individual mice (contralateral paw, 21 h): 15.23 and 12.33 and 19.73 and 9.13 and 7.03 and 15.57 | paw withdrawal latency (Hargreaves), individual mice (ipsilateral paw, 1 h): 8.4 and 16.3 and 10.87 and 15.83 and 12.17 and 11.77 | paw withdrawal latency (Hargreaves), individual mice (ipsilateral paw, 5 h): 10.8 and 9.77 (2×) and 5.13 and 6.33 and 4.77 | paw withdrawal latency (Hargreaves), individual mice (ipsilateral paw, 21 h): 6.3 and 9.13 and 2.77 and 3.3 and 2.37 and 11.83
